In US20240217990A1 (Gilead Sciences, Inc., priority 2021, published 2024) one finds EC50 data, which are given here for 22 molecules.

pEC50: −log10 of the molar value.

One assay concerns the target T1, TLR8 (Homo sapiens, UniProt Q9NR97).
T1 construct: Human peripheral blood mononuclear cells (PBMCs) consist of lymphocytes, monocytes and dendritic cells that express TLR7, TLR8 and TLR9; endogenous in cells; host or cells: cryopreserved human PBMCs from healthy donors
T1 sequence (Q9NR97 27-1041): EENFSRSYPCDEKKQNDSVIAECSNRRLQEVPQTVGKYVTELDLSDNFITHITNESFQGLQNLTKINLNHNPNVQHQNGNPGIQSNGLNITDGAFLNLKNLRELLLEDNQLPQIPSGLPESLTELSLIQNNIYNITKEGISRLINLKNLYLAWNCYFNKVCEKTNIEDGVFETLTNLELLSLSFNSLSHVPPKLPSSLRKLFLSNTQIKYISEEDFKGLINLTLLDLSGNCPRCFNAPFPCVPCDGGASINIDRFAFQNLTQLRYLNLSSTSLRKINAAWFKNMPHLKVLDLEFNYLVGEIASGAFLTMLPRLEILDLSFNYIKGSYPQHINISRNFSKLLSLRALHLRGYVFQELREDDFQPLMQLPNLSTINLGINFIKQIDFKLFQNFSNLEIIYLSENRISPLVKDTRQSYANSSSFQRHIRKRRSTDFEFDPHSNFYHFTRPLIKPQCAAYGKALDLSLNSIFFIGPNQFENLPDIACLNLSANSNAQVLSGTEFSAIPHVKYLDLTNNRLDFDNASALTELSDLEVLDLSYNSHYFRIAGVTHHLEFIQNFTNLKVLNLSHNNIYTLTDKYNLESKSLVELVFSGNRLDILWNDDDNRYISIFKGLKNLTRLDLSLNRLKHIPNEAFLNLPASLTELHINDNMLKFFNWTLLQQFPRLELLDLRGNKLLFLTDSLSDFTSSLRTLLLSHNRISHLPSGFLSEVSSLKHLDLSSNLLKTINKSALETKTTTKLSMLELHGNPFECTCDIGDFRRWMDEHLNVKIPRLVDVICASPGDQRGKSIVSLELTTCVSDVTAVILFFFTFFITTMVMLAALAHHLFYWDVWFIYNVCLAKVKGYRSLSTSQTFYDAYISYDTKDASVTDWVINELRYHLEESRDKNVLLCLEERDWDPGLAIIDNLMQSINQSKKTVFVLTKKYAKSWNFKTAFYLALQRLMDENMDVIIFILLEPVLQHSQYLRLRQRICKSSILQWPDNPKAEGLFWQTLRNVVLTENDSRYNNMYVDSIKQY
In words: TLR8 human PBMC cell-based assay (antagonist, Compound A stimulated cytokine release). The conditions noted are these: human PBMCs; TLR8 agonist Compound A 800 nM, 6 hours; cytokines (TNFa and IL 12p40) in supernatant; read-out: TLR-8 EC50. An excerpt: (§1) Human peripheral blood mononuclear cells (PBMCs) consist of lymphocytes, monocytes and dendritic cells that express TLR7, TLR8 and TLR9. These cells respond to TLR7, TLR8 and TLR9 ligand stimulation and produce cytokines and chemokines in vitro and in vivo. Human PBMCs are therefore suitable to be used in a cell-based assay to assess the in vitro potency of a TLR 7, 8, and/or 9 antagonist. The result is expected to be more translatable to the pharmacodynamics response in vivo than cell line-based assays.
Cryopreserved human PBMCs from healthy donors were thawed and resuspended in RPMI-1640 media with L-glutamine (Corning) supplemented with 10% Fetal Bovine Serum (Hyclone) and 1X Penicillin-Streptomycin (Corning). After counting, the cell density was adjusted to 2 million cells/ml and incubated for 1 hour at 37° C., 5% CO2 for recovery. Following the recovery, the cells were plated by adding 50 μl per well (100,000 cells) to 384-well cell culture plates (Greiner) containing 250 nl of test antagonists in 100% DMSO per well, in a 10 points dose response in quadruplicates. PBMCs were incubated in the presence of antagonists for one hour at 37° C., 5% CO2 before being stimulated with TLR8 agonist. Compound A (Gilead Sciences, U.S. Pat. No. 10,285,990) was used as the TLR8 agonist at a final concentration of 800 nM. PBMCs were incubated in the presence of antagonist and the TLR8 agonist for an additional 6 hours at 37° C., 5% CO2. At the end of the incubation, the cell culture plates were centrifuged at 500 g for 5 min, and the cell culture supernatant was collected. The level of cytokines (TNFa and IL 12p40) in the supernatant was measured by electrochemiluminescence immunoassays (Mesoscale Discovery) following manufacturer's recommended protocols. The level of cytokine measured was plotted against the antagonist concentration and fitted to a sigmoidal function to determine the EC50, which are shown below in Table 11.

For a further assay, the target named is T2, TLR7 (Homo sapiens, UniProt Q9NYK1).
T2 construct: Human peripheral blood mononuclear cells (PBMCs) consist of lymphocytes, monocytes and dendritic cells that express TLR7, TLR8 and TLR9; endogenous in cells; host or cells: cryopreserved human PBMCs from healthy donors
T2 sequence (Q9NYK1 27-1049): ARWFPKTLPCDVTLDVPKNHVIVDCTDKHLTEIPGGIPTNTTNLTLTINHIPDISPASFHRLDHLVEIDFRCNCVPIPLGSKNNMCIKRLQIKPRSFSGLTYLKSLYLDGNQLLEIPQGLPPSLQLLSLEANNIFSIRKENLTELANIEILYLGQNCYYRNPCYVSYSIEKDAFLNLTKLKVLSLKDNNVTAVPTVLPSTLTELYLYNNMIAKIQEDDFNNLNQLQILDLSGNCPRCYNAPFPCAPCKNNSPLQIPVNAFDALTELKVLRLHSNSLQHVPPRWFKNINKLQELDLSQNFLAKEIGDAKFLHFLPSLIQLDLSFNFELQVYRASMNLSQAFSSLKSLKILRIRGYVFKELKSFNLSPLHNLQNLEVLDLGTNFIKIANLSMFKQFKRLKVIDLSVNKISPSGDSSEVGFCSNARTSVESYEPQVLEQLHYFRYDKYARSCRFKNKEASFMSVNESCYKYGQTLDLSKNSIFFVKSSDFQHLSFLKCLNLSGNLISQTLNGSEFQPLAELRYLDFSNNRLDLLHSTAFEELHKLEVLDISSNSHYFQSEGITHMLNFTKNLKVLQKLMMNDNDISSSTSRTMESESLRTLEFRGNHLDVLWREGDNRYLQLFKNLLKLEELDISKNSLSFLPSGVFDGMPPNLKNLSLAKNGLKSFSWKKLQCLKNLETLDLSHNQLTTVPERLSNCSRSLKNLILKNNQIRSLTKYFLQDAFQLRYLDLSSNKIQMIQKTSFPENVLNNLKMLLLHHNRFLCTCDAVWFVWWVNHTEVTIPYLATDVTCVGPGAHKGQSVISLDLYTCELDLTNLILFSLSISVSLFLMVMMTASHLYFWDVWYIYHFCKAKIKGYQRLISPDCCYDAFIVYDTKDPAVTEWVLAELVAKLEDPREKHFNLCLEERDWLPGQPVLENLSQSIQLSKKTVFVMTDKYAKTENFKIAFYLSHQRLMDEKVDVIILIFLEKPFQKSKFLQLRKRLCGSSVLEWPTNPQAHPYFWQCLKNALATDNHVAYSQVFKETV
Kind of assay: TLR7 human PBMC cell-based assay (antagonist, GS-986 stimulated cytokine release). Conditions: human PBMCs; TLR7 agonist GS-986 400 nM, 6 hours; cytokines (IL-6 and IFNα) in supernatant; read-out: TLR-7 EC50.
Excerpt: as §1
Cryopreserved human PBMCs from healthy donors were thawed and resuspended in RPMI-1640 media with L-glutamine (Corning) supplemented with 10% Fetal Bovine Serum (Hyclone) and 1× Penicillin-Streptomycin (Corning). After counting, the cell density was adjusted to 2 million cells/ml and incubated for 1 hour at 37° C., 5% CO2 for recovery. Following the recovery, the cells were plated by adding 50 μl per well (100,000 cells) to 384-well cell culture plates (Greiner) containing 250 nl of test antagonists in 100% DMSO per well, in a 10 points dose response in quadruplicates. PBMCs were incubated in the presence of test antagonists for one hour at 37° C., 5% CO2 before being stimulated with a TLR7 or TLR9agonist. GS-986 (Gilead Sciences) was used as the TLR7 agonist at a final concentration of 400 nM. ODN-2216 (InvivoGen) was used as the TLR9 agonist at a final concentration of 3 μM. PBMCs were incubated in the presence of the test antagonist and the TLR7 (or TLR9) agonist for an additional 6 hours at 37° C., 5% CO2. At the end of the incubation, the cell culture plates were centrifuged at 500 g for 5 min, and the cell culture supernatant was collected. The level of cytokines (IL-6 and IFNα) in the supernatant was measured by electrochemiluminescence immunoassays (Mesoscale Discovery) following manufacturer's recommended protocols. The level of cytokine measured was plotted against the test antagonist concentration and fitted to a sigmoidal function to determine the EC50, which are shown below in Table 11.

With `Cc1cc(-c2[nH]c3cc(C(=O)N4CCNCC4)sc3c2C(C)C)cn(C)c1=O` [Example 34], the results for the pEC50 on TLR8 and on TLR7 were 8.52 and 8.01, respectively.

Regarding `Cc1nc(N2CCNCC2)ccc1-c1cc2[nH]c(-c3cc(C)c4ncnn4c3)c(C(C)C)c2s1` [Example 217], the figures for the pEC50 on TLR8 and on TLR7 were 8.22 and 9.70, respectively. Taken in the same sequence, the figures for `Cc1cc(-c2[nH]c3cc(C4CCC5(CC4)CNC5)sc3c2C(C)C)cn2ncnc12` [Example 160] were 8.15 and 9.40. On the same counts, the results for `Cc1cc(-c2[nH]c3cc(C(=O)N(C)C4CCN(CCO)CC4)sc3c2C(C)C)cn2ncnc12` [Example 141] are 8.57 and 8.89. On the same counts, the results for `Cc1cc(-c2[nH]c3cc(-c4nnc(C5CCNCC5)o4)sc3c2C(C)C)cc(C)n1` [Example 52, 2-[5-(2,6-dimethyl-4-pyridyl)-6-isopropyl-4H-thieno[3,2-b]pyrrol-2-yl]-5-(4-piperidyl)-1,3,4-oxadiazole] are 7.80 and 7.44. On to `COc1cc(-c2[nH]c3cc(-c4cnc5c(c4)CNCC5)sc3c2C(C)C)cn2ncnc12` [Example 224], for which the results for the pEC50 at TLR8 and at TLR7 were 9.52 and 9.40, respectively. On the same counts, the results for `Cc1cc(-c2[nH]c3cc(C4CCC5CN(CC(N)=O)CCC5C4)sc3c2C(C)C)cn2ncnc12` (stereo not shown) [Example 287] are 8.27 and 9.25.

On to `Cc1cc(-c2[nH]c3cc(C(=O)N4CCN(C)CC4)sc3c2C(C)C)cn2ncnc12` [Example 43], for which the negative-log EC50 (pEC50) was 8.59 on TLR8 and 8.19 at TLR7. Taken in the same sequence, the figures for `CC(C)c1c(-c2ccn3ccnc3c2)[nH]c2cc(C(=O)N3CCNCC3)sc12` [Example 68] were below 6.00 and 6.09. On the same counts, the results for `Cc1cc(-c2[nH]c3cc(C(=O)N(C4CCC4)C4CCN(CC(N)=O)CC4)sc3c2C(C)C)cn2ncnc12` [Example 167] are 7.28 and 7.85. As for `Cc1cc(-c2[nH]c3cc(C4CCN(C(=O)[C@@H]5CCCN5C)CC4)sc3c2C(C)C)cn2ncnc12` [Example 200], the pEC50 at TLR8 is 8.00; on TLR7, 8.42. `Cc1cc(-c2[nH]c3cc(C(=O)N(C)[C@H]4CNC[C@@H]4F)sc3c2C(C)C)cn2ncnc12` [Example 58]: the figures for the pEC50 at TLR8 and on TLR7 were 7.68 and 7.78, respectively.

Regarding `Cc1cc(-c2[nH]c3cc(C(=O)N4CCC[C@H]5NCC[C@H]54)sc3c2C(C)C)cn2ncnc12` [Example 108], the pEC50 on TLR8 was 8.55; at TLR7, 9.22. On to `Cc1cc(-c2[nH]c3cc(C(=O)N4CC(N(C)C)C4)sc3c2C(C)C)cn2ncnc12` [Example 147], for which the pEC50 on TLR8 was 8.62; on TLR7, 6.82.

Consider `Cc1cc(-c2[nH]c3cc(C(=O)N4CC(N)C4)sc3c2C(C)C)cn2ncnc12` [Example 114], for which the values for the pEC50 at TLR8 and on TLR7 were 8.12 and 7.90, respectively. Turning to `Cc1cc(-c2[nH]c3cc(C(=O)N4CC[C@H](F)[C@@H](N)C4)sc3c2C(C)C)cc(C)n1` [Example 26], the pEC50 on TLR7 was 6.99. On the same count and under the same terms, the value for `Cc1cc(-c2[nH]c3cc(C(=O)N4CCN5CCOC[C@@H]5C4)sc3c2C(C)C)cc(C)n1` [Example 42] was 6.31.

As to `Cc1cc(-c2[nH]c3cc(C(=O)N4CC[C@H](N)C4)sc3c2C(C)C)cn(C)c1=O` [Example 35], at TLR7, the pEC50 was 6.62. On the same count and under the same terms, next, `Cc1cc(-c2[nH]c3cc(C(=O)N4CCC[C@H](N)[C@@H]4C)sc3c2C(C)C)cc(C)n1` [Example 33]: 7.95; `Cc1cc(-c2[nH]c3cc(C(=O)N(C)C4CCNCC4(C)C)sc3c2C(C)C)cc(C)n1` (stereo not shown) [Example 37]: 7.99.

As to `Cc1cc(-c2[nH]c3cc(C(=O)N4CCN5CCOC[C@H]5C4)sc3c2C(C)C)cc(C)n1` [Example 41], the pEC50 at TLR7 is 6.17.

As for `Cc1cc(-c2[nH]c3cc(C4CCC5(CCNC5)C4)sc3c2C(C)C)cn2ncnc12` (stereo not shown) [Example 278], the pEC50 at TLR8 was 7.98.

For orientation: pEC50 means the negative decadic logarithm of the EC50, by convention in mol/L.
